This note sets out measurements from article PMC6876276 (Cell Chemical Biology, 2019).

In the assay the target is T1, SHMT1 (Homo sapiens, UniProt P34896).
T1 sequence (P34896 2-483): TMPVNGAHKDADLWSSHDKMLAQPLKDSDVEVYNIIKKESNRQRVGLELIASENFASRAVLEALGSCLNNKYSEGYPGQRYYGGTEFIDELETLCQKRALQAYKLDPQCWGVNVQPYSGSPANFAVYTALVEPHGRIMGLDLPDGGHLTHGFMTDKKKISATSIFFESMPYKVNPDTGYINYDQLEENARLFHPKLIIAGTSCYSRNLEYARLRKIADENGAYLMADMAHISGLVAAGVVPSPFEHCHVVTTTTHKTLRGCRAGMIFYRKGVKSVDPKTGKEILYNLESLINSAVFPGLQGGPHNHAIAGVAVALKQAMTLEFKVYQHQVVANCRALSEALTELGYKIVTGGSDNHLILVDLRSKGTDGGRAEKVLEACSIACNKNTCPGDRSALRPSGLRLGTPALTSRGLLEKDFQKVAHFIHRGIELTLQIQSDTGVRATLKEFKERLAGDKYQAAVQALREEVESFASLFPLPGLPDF
The assay can be described thus: thermal shift assay, SYPRO orange. It is filed as binding. To be noted: 2 μM apo-SHMT1, SEC buffer; covalent internal aldimine (reversible).

As for `Cc1ncc(COP(=O)(O)O)c(C=O)c1O` [PLP, pyridoxal 5′-phosphate], the melting temperature result is on record as “selective increase in melting temperature of apo-SHMT1 upon incubation with increasing PLP amounts”.
